How the values were obtained:
92.1 cells [1] = experiment: Melanocytic re-differentiation (morphology, pigmentation, immunostaining); assay type: cell-based, Human; conditions: 7 d GSK503 and 3 d FR
Procedure: FIG. 5A Morphological changes elicited by FR. UM cell lines were treated 3 d with FR and imaged by phase contrast microscopy. FR caused UM cells driven by constitutively active Gαq (92.1 and Mel202) to lose their characteristic spindle shaped and assume a stellate shape with multiple projections. FR had no effect on BRAF-driven UM cells (OCM-1A). FIG. 5B Melanocytic differentiation of FR-treated UM cells indicated by pigmentation. UM cell lines were treated 3 d with FR. Cells were pelleted and examined macroscopically. […] Scale bar=50 μm.
(§1) Gαq-mutant 92.1 UM cells were treated with FR or vehicle, and RNA was collected 1 and 3 d after treatment for RNA-Seq analysis. FIG. 7A Unsupervised principal component analysis identified FR treatment and time in culture as the two main separable factors contributing to changes in gene expression. […] FIG. 7D FR-repressed genes identified as targets of the polycomb repressive complex 2 by Geneset enrichment analysis. FIG. 7E The Ezh1/2 inhibitor GSK503 blocks the morphological differentiation elicited by FR. 92.1 UM cells were treated 7 d with GSK503 and 3 d with FR and then imaged by phase contrast microscopy. […] 92.1 cells were treated 7 d with GSK503 and 3 d with FR and pelleted. FIG. 7G PRC2 inhibition by GSK503.
Cell fixation was carried out by adding an equal volume of 2×fixative (PBS with 4% paraformaldehyde and 0.4% glutaraldehyde) to UM cells in RPMI growth medium. After 15 min at 37° C., cells were permeabilized with 0.1% Triton X-100 in PBS for 5 min, washed with PBS, and blocked with 2% fish gelatin (Sigma-Aldrich) in PBS. Primary and secondary antibodies were diluted in 2% fish gelatin in PBS. Primary antibodies included mouse monoclonal anti-pre-melanosomal protein (One World Lab, San Diego, Calif.), rabbit polyclonal anti-tyrosinase (One World Lab), rabbit polyclonal anti-dopachrome tautomerase (One World Lab), rabbit polyclonal anti-S100 (DakoCytomation, Denmark), and mouse monoclonal anti-BrdU (Life Technologies). Secondary antibodies were Alexa-fluor conjugates (Life Technologies), and the mounting agent was ProLong Gold (Life Technologies). Cell morphology was assessed by phase contrast imaging with an inverted microscope (Olympus IX72) using a 10×objective.

92.1 cells [2] = experiment: Immunoblot of histone H3 lysine 27 trimethylation (PRC2 inhibition); assay type: cell-based, Human; conditions: 7 d GSK503, FIG. 7G
Procedure: as §1
For standard immunoblots, cells were lysed and cleared in radioimmunoprecipitation assay buffer (150 mM sodium chloride, 1% Triton-X100, 0.5% sodium deoxycholate, 0.1% sodium dodecyl sulfate, 50 mM Tris, pH 8.0) with 1×Complete Protease Inhibitor (Roche, cat.11697498001). Histones were isolated from cells using the Active Motif Histone Purification Mini Kit (cat.40026, Active Motif, Carlsbad, Calif.). Lysates were resolved on 15% SDS-PAGE gels and transferred to Immobilon(P) PVDF membrane (Milipore, cat.IPVH00010). […] Following incubation, membranes were washed at least three times with TBST and signals were detected using LI-COR Odyssey model 9120 imaging system (LI-COR). […]

Cc1cc(C)c(CNC(=O)c2cc(-c3ccc(N4CCN(C)CC4)nc3)cc3c2c(C)cn3C(C)C)c(=O)[nH]1 [GSK503, reference compound]
FR-induced re-differentiation (morphology) (92.1 cells [1]; FIG. 7E): blocked the ability of FR to re-differentiate these cells
pigmentation of FR-treated cells (92.1 cells [1]; FIG. 7F): decreased pigmentation
histone H3 lysine 27 trimethylation (immunoblot) (92.1 cells [2]): reduced histone H3 lysine 27 trimethylation

Reference: patent publication US20230130103A1, “TARGETED PHARMACOLOGICAL THERAPEUTICS IN UVEAL MELANOMA” (Washington University, priority 2017, published 2023)
